Values of other authors in patent publication US20250295115A1, “USE OF HERBICIDAL COMPOSITIONS BASED ON L-GLUFOSINATE IN TOLERANT FIELD CROPS” (BASF SE, priority 2017, published 2025).

System: perennial weeds and brush
Conditions: as taught by U.S. Pat. No. 4,265,654

Structure (SMILES): CP(=O)(O)CC[C@H](N)C(=O)O (single isomer, unassigned) [L-isomer]
- Effectiveness compared with the racemic acid: twice as effective
